From EP4603105A1, “PHARMACEUTICAL COMPOSITION CONTAINING CYCLIC COMPOUND HAVING SELECTIVE KRAS INHIBITORY EFFECT AGAINST HRAS AND NRAS” (CHUGAI SEIYAKU KABUSHIKI KAISHA, priority 2022, dated 2024)
*1 amine or outer side, *2 acyl side, *3 side chain or, on linkers, in order; H or OH if unused. Where a SMILES comes first, the peptide text is derived from it. Bridges are numbered along the chain shown (N, C = ends). [ ]: non-standard residue; d: D form. The star is where a group is joined. hPhe(3,5-F2-4-CF3) = N[C@@H](CCc1cc(F)c(C(F)(F)F)c(F)c1)C(=O)O; X6 = CC(C)(C)CCN([C@@H](Cc1ccc(C(F)(F)F)cc1)C(=O)[*:2])[*:1]; hPhe(3-Cl-4-CF3) = N[C@@H](CCc1ccc(C(F)(F)F)c(Cl)c1)C(=O)O; NPrPhe(4-CF3) = CCCN[C@@H](Cc1ccc(C(F)(F)F)cc1)C(=O)O; NMeGly(cPent) = CN[C@H](C(=O)O)C1CCCC1; X3 = CCC[C@](C)(N[*:1])C(=O)[*:2]; NMeD = CN[C@@H](CC(=O)O)C(=O)O; NMeL = CN[C@@H](CC(C)C)C(=O)O; Morpholide = C1CN(*)CCO1; NMeA = CN[C@@H](C)C(=O)O; Ac5c = NC1(C(=O)O)CCCC1; Aze = O=C(O)[C@@H]1CCN1; Sar = CNCC(=O)O

Experiments:
[1] = target: GDP-bound KRAS wild-type protein (Homo sapiens, UniProt P01116); assay: Binding to KRAS by surface plasmon resonance (SPR), dissociation constant KD
Sequence of GDP-bound KRAS wild-type protein (P01116 1-188 isoform P01116-2): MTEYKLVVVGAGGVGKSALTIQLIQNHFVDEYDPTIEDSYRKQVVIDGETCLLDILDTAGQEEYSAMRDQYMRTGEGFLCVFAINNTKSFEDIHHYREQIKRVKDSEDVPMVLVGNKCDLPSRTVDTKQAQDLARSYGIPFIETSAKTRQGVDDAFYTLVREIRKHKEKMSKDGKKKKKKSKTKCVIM
Outline: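 Compound binding is evaluated by SPR single-cycle kinetics, with concentrations added intermittently from low to high for 75 s each. Target surfaces carry GDP-loaded biotinylated Avi-RAS at about 100–300 RU, regenerated after each cycle; temperature 30°C. A 1:1 binding model gives KD.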

[2] = target: GDP-bound NRAS wild-type protein (Homo sapiens, UniProt P01111); assay: Binding to NRAS by surface plasmon resonance (SPR), KD and KD ratio to KRAS
Sequence of GDP-bound NRAS wild-type protein (P01111 whole entry): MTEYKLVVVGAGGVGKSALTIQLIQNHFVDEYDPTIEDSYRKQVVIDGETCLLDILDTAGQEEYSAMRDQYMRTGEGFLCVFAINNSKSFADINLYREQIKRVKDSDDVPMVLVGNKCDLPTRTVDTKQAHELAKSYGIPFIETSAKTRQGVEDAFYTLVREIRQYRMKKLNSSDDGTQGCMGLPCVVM
Outline: (§1)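 Recombinant RAS proteins bearing a biotinylated Avi tag and loaded with GDP served as the captured ligand, recaptured fresh every cycle. Binding responses were referenced to an uncoated surface and a buffer-only blank cycle. Dissociation constants were obtained by 1:1 model fitting at 30°C.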

[3] = target: HRAS wild-type protein (Homo sapiens, UniProt P01112); assay: Binding to HRAS by surface plasmon resonance (SPR), KD and KD ratio to KRAS
Sequence of HRAS wild-type protein (P01112 whole entry): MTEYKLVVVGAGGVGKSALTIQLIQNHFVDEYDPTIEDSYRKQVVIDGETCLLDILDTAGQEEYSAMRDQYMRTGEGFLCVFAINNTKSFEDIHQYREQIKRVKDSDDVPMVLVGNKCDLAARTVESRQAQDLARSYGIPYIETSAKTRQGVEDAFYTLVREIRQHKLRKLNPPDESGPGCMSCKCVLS
Outline: as §1

[4] = tested on: human lung cancer strain NCI-H441; type: cell-based
Outline: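 Signal came from […] measured per well once the reagent was added. Beforehand, cells were cultured at 37°C and 5% carbon dioxide on a compound series serially diluted in dimethyl sulfoxide.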

[5] = ratio of KD for GDP-bound NRAS wild-type protein to KD for KRAS
[6] = ratio of KD for HRAS wild-type protein to KD for KRAS
[7] = Single Cycle Kinetics, 1:1 binding model
[8] = ratio of KD value for GDP-bound NRAS wild-type protein to KD value for KRAS (SPR)
[9] = ratio of KD value for HRAS wild-type protein to KD value for KRAS (SPR)

Kd ([1]; Single Cycle Kinetics) [nM]	IC50 [4] [nM]	Kd [1, 7] [nM]	Kd ([1]; 1:1 binding model) [nM]	SMILES	NRAS /KRAS [2, 5]	HRAS /KRAS [3, 6]	NRAS /KRAS [2, 8]	HRAS /KRAS [3, 9]	NRAS /KRAS ([2]; ratio of the KD value with respect to GDP-bound NRAS wild-type protein to the KD value with respect to KRAS)	HRAS /KRAS ([3]; ratio of the KD value with respect to HRAS wild-type protein to the KD value with respect to KRAS)
9.2	417			CCCN1C(=O)CN(C)C(=O)[C@@H]2CCN2C(=O)[C@H]([C@@H](C)CC)NC(=O)[C@H](CC(C)C)N(C)C(=O)C[C@@H](C(=O)N2CCOCC2)N(C)C(=O)[C@H](C2CCCC2)N(C)C(=O)[C@](C)(CCC)NC(=O)[C@@H]2CCCN2C(=O)[C@H](CCc2cc(F)c(C(F)(F)F)c(F)c2)NC(=O)CN(C)C(=O)[C@@H]1Cc1ccc(C(F)(F)F)cc1 [PP0775] ([NMeL]I[Aze][Sar][NPrPhe(4-CF3)][Sar][hPhe(3,5-F2-4-CF3)]P[X3][NMeGly(cPent)][NMeD]-Morpholide; lactam N-11)	B (a compound having 3 or more and less than 10 is denoted as B)	B (a compound having 3 or more and less than 10 is denoted as B)				
	40.5	1.7		CCC[C@H]1C(=O)N[C@@H]([C@H](C)CC)C(=O)N(C)CC(=O)N(C)[C@H]2C/C=C\CCN(C2=O)[C@@H](Cc2ccc(C)cc2)C(=O)N(C)CC(=O)N[C@@H](CCc2ccc(C(F)(F)F)c(Cl)c2)C(=O)N2C[C@H](OCC)C[C@H]2C(=O)NC2(CC(C)(C)C2)C(=O)N(C)[C@@H](C2CCCC2)C(=O)N(C)[C@H](C(=O)N(C)C)CC(=O)N1C [PP2221]					A (a compound having 10 or more and less than 20 is denoted as A)	A (a compound having 10 or more and less than 20 is denoted as A)
0.39	156			CC[C@H](C)[C@@H]1NC(=O)[C@H](CC)N(C)C(=O)C[C@@H](C(=O)N2CCOCC2)N(C)C(=O)[C@H](C2CCCC2)N(C)C(=O)C2(CCCC2)NC(=O)[C@@H]2CCCN2C(=O)[C@H](CCc2ccc(C(F)(F)F)c(Cl)c2)NC(=O)CN(C)C(=O)[C@H](Cc2ccc(F)cc2)N2CCCCC[C@@H](C2=O)N(C)C(=O)CN(C)C1=O [PP0959]	B (a compound having 3 or more and less than 10 is denoted as B)	B (a compound having 3 or more and less than 10 is denoted as B)				
	7.1		0.75	CC[C@H](C)[C@@H]1NC(=O)[C@H](CC(C)C)N(C)C(=O)C[C@@H](C(=O)N2CCOCC2)N(C)C(=O)[C@H](C2CCCC2)N(C)C(=O)C2(CCCC2)NC(=O)[C@@H]2CCCN2C(=O)[C@H](CCc2ccc(C(F)(F)F)c(Cl)c2)NC(=O)CN(C)C(=O)[C@H](Cc2ccc(C(F)(F)F)cc2)N(CCC(C)(C)C)C(=O)[C@@H]2CCN2C(=O)[C@H](C)N(C)C1=O [PP0113] ([NMeL]I[NMeA][Aze][X6][Sar][hPhe(3-Cl-4-CF3)]P[Ac5c][NMeGly(cPent)][NMeD]-Morpholide; lactam N-11)	C (A compound having a KD ratio of 0.1 or more and less than 3 is denoted as C)	B (a compound having 3 or more and less than 10 is denoted as B)				

Second part, the compound before the results:

SMILES	Kd ([1]; Single Cycle Kinetics) [nM]	IC50 [4] [nM]	Kd [1, 7] [nM]	Kd ([1]; 1:1 binding model) [nM]	NRAS /KRAS [2, 5]	HRAS /KRAS [3, 6]	NRAS /KRAS [2, 8]	HRAS /KRAS [3, 9]	NRAS /KRAS ([2]; ratio of the KD value with respect to GDP-bound NRAS wild-type protein to the KD value with respect to KRAS)	HRAS /KRAS ([3]; ratio of the KD value with respect to HRAS wild-type protein to the KD value with respect to KRAS)
CC[C@H](C)[C@@H]1NC(=O)[C@H](CC)N(C)C(=O)C[C@@H](C(=O)N(C)C)N(C)C(=O)[C@H](C2CCCC2)N(C)C(=O)C2(CCC2)N(C)C(=O)[C@@H]2CCCN2C(=O)[C@H](CCc2cc(F)c(C(F)(F)F)c(F)c2)NC(=O)CN(C)C(=O)[C@H](Cc2ccc(C)cc2)N2CC/C=C\C[C@@H](C2=O)N(C)C(=O)CN(C)C1=O [PP1782]		6.7	0.044				A (a compound having 10 or more and less than 20 is denoted as A)	B (a compound having 3 or more and less than 10 is denoted as B)		
CCO[C@@H]1C[C@H]2C(=O)NC3(CC(C)(C)C3)C(=O)N(C)[C@@H](C3CCCC3)C(=O)N(C)[C@H](C(=O)N(C)CC)CC(=O)N(C)[C@H]3CC/C=C/c4ccc(cc4)C[C@@H](C(=O)N(C)CC(=O)N[C@@H](CCc4ccc(Cl)c(Cl)c4)C(=O)N2C1)N1CC/C=C\C[C@@H](C1=O)N(C)C(=O)CN(C1CC1)C(=O)[C@H]([C@@H](C)CC)NC3=O [PP2598]		23		1.9	A (a compound having 10 or more and less than 20 is denoted as A)	A (a compound having 10 or more and less than 20 is denoted as A)				
CCO[C@@H]1C[C@H]2C(=O)NC3(CC(C)(C)C3)C(=O)N(C)[C@@H](C3CCCC3)C(=O)N(C)[C@H](C(=O)N(C)C)CC(=O)N(C)[C@@H](CC3CCCC3)C(=O)N[C@@H]([C@@H](C)CC)C(=O)N(C)CC(=O)N(C)[C@H]3C/C=C\CCN(C3=O)[C@@H](Cc3ccc(C(F)(F)F)cc3)C(=O)N(C)CC(=O)N[C@@H](CCc3ccc(C(F)(F)F)c(OC)c3)C(=O)N2C1 [PP1565]		6.5	0.11				A (a compound having 10 or more and less than 20 is denoted as A)	B (a compound having 3 or more and less than 10 is denoted as B)		
